Assay results reported in patent publication US20020137929A1, “1 - (3-heterocyclylphenyl) isothiourea, -isourea, -guanidine and -amidine herbicidal agents” (Intellectual Property Department, BASF Aktiengesellschaft, priority 1998, published 2002).

Experiments:
SETVI (Foxtail, Green) [1] = assay: Postemergence herbicidal evaluation; assay type: in vivo, Setaria viridis; details: postemergence
Procedure, shortened: (§1)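 First, seedlings were raised for around two weeks. Next, test material in 50/50 acetone/water containing 0.5% TWEEN 20 was sprayed through a nozzle at 40 psi, equivalent to about 0.0156–0.500 kg/ha. Finally, after 4–5 weeks in the greenhouse, plants were rated 0–9.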

ORYSAT (Rice, Tebonnet) = assay: Postemergence herbicidal evaluation; assay type: in vivo, Oryza sativa, (L.) Tebonnet; details: postemergence
Procedure, shortened: as §1

ZEAMX (Corn, Field) [2] = assay: Postemergence herbicidal evaluation; assay type: in vivo, Zea mays; details: postemergence
Procedure, shortened: as §1

ECHCG (Barnyardgrass) = assay: Preemergence herbicidal evaluation; assay type: in vivo, Echinochloa crus-galli; details: rated 4-5 weeks after treatment, rating scale 0-9
Procedure, shortened: (§2)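 Each species is sown separately in potting soil over roughly an inch of soil before any emergence. The soil surface then receives an aqueous acetone spray delivering about 0.0156 to 0.500 kg/ha of compound. After four to five weeks, injury is scored from 0 to 9 relative to a control.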

SETVI (Foxtail, Green) [3] = assay: Preemergence herbicidal evaluation; assay type: in vivo, Setaria viridis; details: rated 4-5 weeks after treatment, rating scale 0-9
Procedure, shortened: as §2

[4] = tested on: TRZAWR (Wheat, Winter, cv Riband); assay: Preemergence herbicidal evaluation; assay type: in vivo, Triticum aestivum; details: rated 4-5 weeks after treatment, rating scale 0-9
Procedure, shortened: as §2

ZEAMX (Corn, Field) [5] = assay: Preemergence herbicidal evaluation; assay type: in vivo, Zea mays; details: rated 4-5 weeks after treatment, rating scale 0-9
Procedure, shortened: as §2

[6] = tested on: ECHORC (Watergrass (Calif.)); assay: Preemergence weed control under flooded paddy conditions; assay type: in vivo, Echinochloa oryzoides; details: rated 3-4 weeks after treatment
Procedure, shortened: (§3)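 Visual injury scored 0-9 against control three to four weeks post-treatment, greenhouse-grown. Application: acetone/water (50/50) solutions dosed directly into flood water (1.5-3 cm over silt loam, planted top 0.5 cm), roughly 0.0313 to 0.500 kg/ha active ingredient.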

CYPIR (Rice Flatsedge) = assay: as above; assay type: in vivo, Cyperus iria; details: rated 3-4 weeks after treatment
Procedure, shortened: as §3

CYPSE (Flatsedge) = assay: as above; assay type: in vivo, Cyperus serotinus; details: rated 3-4 weeks after treatment
Procedure, shortened: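 Silt loam, seeds in top 0.5 cm; flood held 1.5-3 cm; test cpd as acetone/water 50/50 into flood water, ~0.0313-0.500 kg/ha a.i.; greenhouse 3-4 wk; visual 0-9 score vs control.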

## Cn1c(C(F)(F)F)cc(=O)n(-c2cc(N=C3SCC(=O)N3Cc3ccncc3)c(Cl)cc2F)c1=O [Compound 133, 3-{4-Chloro-2-fluoro-5-{[4-oxo-3-(4-pyridylmethyl)-2-thiazolidinylidene]amino}phenyl}-1-methyl-6-(trifluoromethyl)-2,4(1H,3H)-pyrimidinedione]
SETVI (Foxtail, Green) [1]; rate 0.0156 kg/ha
  Herbicidal rating SETVI: 1.0
SETVI (Foxtail, Green) [1]; rate 0.0313 kg/ha
  Herbicidal rating SETVI: 1.0
SETVI (Foxtail, Green) [1]; rate 0.0625 kg/ha
  Herbicidal rating SETVI: 2.0
ORYSAT (Rice, Tebonnet); rate 0.0156 kg/ha
  Herbicidal rating ORYSAT: 2.5
ORYSAT (Rice, Tebonnet); rate 0.0313 kg/ha
  Herbicidal rating ORYSAT: 2.5
ORYSAT (Rice, Tebonnet); rate 0.0625 kg/ha
  Herbicidal rating ORYSAT: 3.0
ZEAMX (Corn, Field) [2]; rate 0.0156 kg/ha
  Herbicidal rating ZEAMX: 4.0
ZEAMX (Corn, Field) [2]; rate 0.0313 kg/ha
  Herbicidal rating ZEAMX: 4.0
ZEAMX (Corn, Field) [2]; rate 0.0625 kg/ha
  Herbicidal rating ZEAMX: 4.0
ECHCG (Barnyardgrass); rate 0.0313 kg/ha
  Preemergence herbicidal rating ECHCG: 0.0
ECHCG (Barnyardgrass); rate 0.0625 kg/ha
  Preemergence herbicidal rating ECHCG: 0.0
ECHCG (Barnyardgrass); rate 0.1250 kg/ha
  Preemergence herbicidal rating ECHCG: 0.0
ECHCG (Barnyardgrass); rate 0.2500 kg/ha
  Preemergence herbicidal rating ECHCG: 0.0
SETVI (Foxtail, Green) [3]; rate 0.0313 kg/ha
  Preemergence herbicidal rating SETVI: 0.0
SETVI (Foxtail, Green) [3]; rate 0.0625 kg/ha
  Preemergence herbicidal rating SETVI: 0.0
SETVI (Foxtail, Green) [3]; rate 0.1250 kg/ha
  Preemergence herbicidal rating SETVI: 0.0
SETVI (Foxtail, Green) [3]; rate 0.2500 kg/ha
  Preemergence herbicidal rating SETVI: 0.0
[4]; rate 0.0313 kg/ha
  Preemergence herbicidal rating TRZAWR: 0.0
[4]; rate 0.0625 kg/ha
  Preemergence herbicidal rating TRZAWR: 0.0
[4]; rate 0.1250 kg/ha
  Preemergence herbicidal rating TRZAWR: 0.0
[4]; rate 0.2500 kg/ha
  Preemergence herbicidal rating TRZAWR: 0.0
ZEAMX (Corn, Field) [5]; rate 0.0313 kg/ha
  Preemergence herbicidal rating ZEAMX: 0.0
ZEAMX (Corn, Field) [5]; rate 0.0625 kg/ha
  Preemergence herbicidal rating ZEAMX: 0.0
ZEAMX (Corn, Field) [5]; rate 0.1250 kg/ha
  Preemergence herbicidal rating ZEAMX: 0.0
ZEAMX (Corn, Field) [5]; rate 0.2500 kg/ha
  Preemergence herbicidal rating ZEAMX: 0.0
[6]; 0.0313 kg/ha
  herbicidal effect rating, ECHORC: 6.0
[6]; 0.0625 kg/ha
  herbicidal effect rating, ECHORC: 6.0
[6]; 0.1250 kg/ha
  herbicidal effect rating, ECHORC: 9.0
[6]; 0.2500 kg/ha
  herbicidal effect rating, ECHORC: 9.0
CYPIR (Rice Flatsedge); 0.0313 kg/ha
  herbicidal effect rating, CYPIR: 0.0
CYPIR (Rice Flatsedge); 0.0625 kg/ha
  herbicidal effect rating, CYPIR: 0.0
CYPIR (Rice Flatsedge); 0.1250 kg/ha
  herbicidal effect rating, CYPIR: 2.0
CYPIR (Rice Flatsedge); 0.2500 kg/ha
  herbicidal effect rating, CYPIR: 3.0
CYPSE (Flatsedge); 0.0313 kg/ha
  herbicidal effect rating, CYPSE: 0.0
CYPSE (Flatsedge); 0.0625 kg/ha
  herbicidal effect rating, CYPSE: 0.0
CYPSE (Flatsedge); 0.1250 kg/ha
  herbicidal effect rating, CYPSE: 0.0
CYPSE (Flatsedge); 0.2500 kg/ha
  herbicidal effect rating, CYPSE: 1.0

## Cn1c(C(F)(F)F)cc(=O)n(-c2cc(N=C3SCC(=O)N3Cc3cccc(Cl)c3)c(Cl)cc2F)c1=O [Compound 136, 3-{4-Chloro-5-{[3-(m-chlorobenzyl)-4-oxo-2-thiazolidinylidene]amino}-2-fluorophenyl}-1-methyl-6-(trifluoromethyl)-2,4(1H,3H)-pyrimidinedione]
SETVI (Foxtail, Green) [1]; rate 0.0156 kg/ha
  Herbicidal rating SETVI: 4.0
SETVI (Foxtail, Green) [1]; rate 0.0313 kg/ha
  Herbicidal rating SETVI: 6.0
SETVI (Foxtail, Green) [1]; rate 0.0625 kg/ha
  Herbicidal rating SETVI: 6.0
ORYSAT (Rice, Tebonnet); rate 0.0156 kg/ha
  Herbicidal rating ORYSAT: 2.5
ORYSAT (Rice, Tebonnet); rate 0.0313 kg/ha
  Herbicidal rating ORYSAT: 3.0
ORYSAT (Rice, Tebonnet); rate 0.0625 kg/ha
  Herbicidal rating ORYSAT: 2.5
ZEAMX (Corn, Field) [2]; rate 0.0156 kg/ha
  Herbicidal rating ZEAMX: 4.0
ZEAMX (Corn, Field) [2]; rate 0.0313 kg/ha
  Herbicidal rating ZEAMX: 4.0
ZEAMX (Corn, Field) [2]; rate 0.0625 kg/ha
  Herbicidal rating ZEAMX: 4.0
ECHCG (Barnyardgrass); rate 0.0156 kg/ha
  Preemergence herbicidal rating ECHCG: 0.0
ECHCG (Barnyardgrass); rate 0.0313 kg/ha
  Preemergence herbicidal rating ECHCG: 0.0
ECHCG (Barnyardgrass); rate 0.0625 kg/ha
  Preemergence herbicidal rating ECHCG: 0.0
ECHCG (Barnyardgrass); rate 0.1250 kg/ha
  Preemergence herbicidal rating ECHCG: 0.0
ECHCG (Barnyardgrass); rate 0.2500 kg/ha
  Preemergence herbicidal rating ECHCG: 0.0
SETVI (Foxtail, Green) [3]; rate 0.0156 kg/ha
  Preemergence herbicidal rating SETVI: 0.0
SETVI (Foxtail, Green) [3]; rate 0.0313 kg/ha
  Preemergence herbicidal rating SETVI: 0.0
SETVI (Foxtail, Green) [3]; rate 0.0625 kg/ha
  Preemergence herbicidal rating SETVI: 2.0
SETVI (Foxtail, Green) [3]; rate 0.1250 kg/ha
  Preemergence herbicidal rating SETVI: 4.0
SETVI (Foxtail, Green) [3]; rate 0.2500 kg/ha
  Preemergence herbicidal rating SETVI: 7.0
[4]; rate 0.0156 kg/ha
  Preemergence herbicidal rating TRZAWR: 0.0
[4]; rate 0.0313 kg/ha
  Preemergence herbicidal rating TRZAWR: 0.0
[4]; rate 0.0625 kg/ha
  Preemergence herbicidal rating TRZAWR: 0.0
[4]; rate 0.1250 kg/ha
  Preemergence herbicidal rating TRZAWR: 1.0
[4]; rate 0.2500 kg/ha
  Preemergence herbicidal rating TRZAWR: 1.0
ZEAMX (Corn, Field) [5]; rate 0.0156 kg/ha
  Preemergence herbicidal rating ZEAMX: 0.0
ZEAMX (Corn, Field) [5]; rate 0.0313 kg/ha
  Preemergence herbicidal rating ZEAMX: 0.0
ZEAMX (Corn, Field) [5]; rate 0.0625 kg/ha
  Preemergence herbicidal rating ZEAMX: 0.0
ZEAMX (Corn, Field) [5]; rate 0.1250 kg/ha
  Preemergence herbicidal rating ZEAMX: 1.0
ZEAMX (Corn, Field) [5]; rate 0.2500 kg/ha
  Preemergence herbicidal rating ZEAMX: 3.0
[6]; 0.0313 kg/ha
  herbicidal effect rating, ECHORC: 7.0
[6]; 0.0625 kg/ha
  herbicidal effect rating, ECHORC: 7.0
[6]; 0.1250 kg/ha
  herbicidal effect rating, ECHORC: 7.0
[6]; 0.2500 kg/ha
  herbicidal effect rating, ECHORC: 9.0
CYPIR (Rice Flatsedge); 0.0313 kg/ha
  herbicidal effect rating, CYPIR: 0.0
CYPIR (Rice Flatsedge); 0.0625 kg/ha
  herbicidal effect rating, CYPIR: 5.0
CYPIR (Rice Flatsedge); 0.1250 kg/ha
  herbicidal effect rating, CYPIR: 6.0
CYPIR (Rice Flatsedge); 0.2500 kg/ha
  herbicidal effect rating, CYPIR: 7.0
CYPSE (Flatsedge); 0.0313 kg/ha
  herbicidal effect rating, CYPSE: 0.0
CYPSE (Flatsedge); 0.0625 kg/ha
  herbicidal effect rating, CYPSE: 0.0
CYPSE (Flatsedge); 0.1250 kg/ha
  herbicidal effect rating, CYPSE: 0.0
CYPSE (Flatsedge); 0.2500 kg/ha
  herbicidal effect rating, CYPSE: 0.0
